Experimental data as given in patent US5286648A, “A84575 antibiotics” (Eli Lilly and Company, priority 1991, dated 1994).
Values after ≈ are worked out from the molar mass of the structure shown. Read-outs that look alike come from different tables or passages of the source.

How the values were obtained:
[1] = system: Peptostreptococcus anaerobium; test: Susceptibility of anaerobic bacterial isolates, agar dilution (Table 13); assay type: cell-based; conditions: 24 h
Fusobacterium symbiosum = test: as above; assay type: cell-based; conditions: 24 h
Bacteroides vulgatis = test: as above; assay type: cell-based; conditions: 24 h
[2] = system: Peptococcus asaccharolyticus; test: Susceptibility of anaerobic cocci isolates, agar dilution (Table 16); assay type: cell-based; conditions: Peptoniphilus asaccharolyticus, 24 h
Streptococcus pneumoniae = test: In vivo activity, administered subcutaneously to mice (Table 17); conditions: sc, subcutaneous, LD challenge 587
[3] = system: Staphylococcus epidermidis; test: In vitro activity vs. Staphylococcus epidermidis strains, agar dilution, Mueller-Hinton agar (Table 7); assay type: cell-based
Streptococcus pyogenes = test: In vivo activity, administered subcutaneously to mice (Table 17); conditions: sc, subcutaneous, LD challenge 464
S. sanguis = test: In vitro activity vs. miscellaneous Streptococcus strains, agar dilution, Mueller-Hinton agar (Table 9)
[4] = Plasma levels in mice (Table 18); assay type: in vivo, mice (ICR Barrier); set-up: unit not given here; conditions: subcutaneous, 20 mg/kg, n = 5
[5] = system: Peptostreptococcus intermedius; test: Susceptibility of anaerobic bacterial isolates, agar dilution (Table 13); assay type: cell-based; conditions: 24 h
[6] = system: Peptostreptococcus anaerobius; test: Susceptibility of anaerobic cocci isolates, agar dilution (Table 16); assay type: cell-based; conditions: 24 h
Streptococcus aureus = test: In vivo activity, administered subcutaneously to mice (Table 17); conditions: sc
Peptococcus prevoti = test: Susceptibility of anaerobic cocci isolates, agar dilution (Table 16); assay type: cell-based; conditions: 24 hr, A84575: 3 different lots
Source text: *MIC Determined by the AgarDilution Method, Endpoints Read After 24Hr.

Eubacterium aerofaciens = test: Susceptibility of anaerobic bacterial isolates, agar dilution (Table 13); assay type: cell-based; conditions: Collinsella aerofaciens, 24 h
Staphylococcus aureus = test: In vitro activity vs. Staphylococcus aureus strains, agar dilution, Mueller-Hinton agar (Table 6); assay type: cell-based
Peptococcus variabilis = test: Susceptibility of anaerobic cocci isolates, agar dilution (Table 16); assay type: cell-based; conditions: 24 h
[7] = system: Peptostreptococcus intermedius; test: as above; assay type: cell-based; conditions: 24 h
S. mutans = test: In vitro activity vs. miscellaneous Streptococcus strains, agar dilution, Mueller-Hinton agar (Table 9)
[8] = system: Peptococcum asaccharolyticus; test: Susceptibility of anaerobic bacterial isolates, agar dilution (Table 13); assay type: cell-based; conditions: 24 h

Compound `CN[C@H](CC(C)C)C(=O)N[C@H]1C(=O)N[C@@H](CC(N)=O)C(=O)N[C@H]2C(=O)N[C@H]3C(=O)N[C@H](C(=O)N[C@H](C(=O)O)c4cc(O)cc(O)c4-c4cc3ccc4O)[C@H](O)c3ccc(c(Cl)c3)Oc3cc2cc(c3O[C@@H]2O[C@H](CO)[C@@H](O)[C@H](O)[C@H]2O[C@H]2C[C@](C)(N)[C@H](O)[C@H](C)O2)Oc2ccc(cc2Cl)[C@H]1O` [Vancomycin] has an MIC [1] of 1 µg/mL (≈ 0.69 µM), an MIC (Fusobacterium symbiosum) of 1 µg/mL (≈ 0.69 µM) and an MIC (Bacteroides vulgatis) of 8 µg/mL (≈ 5.52 µM). It also gave an MIC ([2]; strain 1302, A84575: 3 different lots) of 1 µg/mL (≈ 0.69 µM), an MIC ([2]; strain WAL-3218, A84575: 3 different lots) of 0.125 µg/mL (≈ 0.0863 µM) and an ED50 (Streptococcus pneumoniae) of 1.58 mg/kg. The MIC ([3]; strain 10-S-81, methicillin-resistant) was 1 µg/mL (≈ 0.69 µM), the MIC ([3]; strain 1202-18) was 2 µg/mL (≈ 1.38 µM) and the MIC ([3]; strain 3078) was 1 µg/mL (≈ 0.69 µM). The MIC ([3]; strain 3079) was 2 µg/mL (≈ 1.38 µM), the MIC ([3]; strain 12477, methicillin-resistant) was 2 µg/mL (≈ 1.38 µM) and the MIC ([3]; strain 48213) was 2 µg/mL (≈ 1.38 µM). For the same compound, the MIC ([3]; strain 48989) was 1 µg/mL (≈ 0.69 µM), the MIC ([3]; strain 49030) was 2 µg/mL (≈ 1.38 µM) and the MIC ([3]; strain 49128, methicillin-resistant) was 1 µg/mL (≈ 0.69 µM). For the same compound, the MIC ([3]; strain 49536) was 1 µg/mL (≈ 0.69 µM), the MIC ([3]; strain 50766) was 1 µg/mL (≈ 0.69 µM) and the MIC ([3]; strain S-3) was 2 µg/mL (≈ 1.38 µM). The MIC ([3]; strain ST-214, methicillin-resistant) was 0.5 µg/mL (≈ 0.345 µM), the MIC ([3]; strain ST-215, methicillin-resistant) was 2 µg/mL (≈ 1.38 µM) and the MIC ([3]; strain ST-216) was 1 µg/mL (≈ 0.69 µM). The MIC ([3]; strain ST-217, methicillin-resistant) was 1 µg/mL (≈ 0.69 µM), the MIC ([3]; strain ST-220, methicillin-resistant) was 1 µg/mL (≈ 0.69 µM) and the MIC ([3]; strain ST-222, methicillin-resistant) was 0.5 µg/mL (≈ 0.345 µM). The ED50 (Streptococcus pyogenes) was 0.72 mg/kg, the MIC (S. sanguis; strain I-SSI-547) was 0.5 µg/mL (≈ 0.345 µM) and the MIC (S. sanguis; strain I-SSI-910) was 0.5 µg/mL (≈ 0.345 µM). For the same compound, the MIC (S. sanguis; strain II-SSII-895) was 0.5 µg/mL (≈ 0.345 µM), the MIC (S. sanguis; strain II-SSII-911) was 1 µg/mL (≈ 0.69 µM) and the Plasma level ([4]; 0.08 hours, *1 only 1 zone out of 5 (A84575 Complex)) was 5.84 ± 2.68. For the same compound, the Plasma level ([4]; 0.33 hours) was 14.25 ± 7.8, the Plasma level ([4]; 0.66 hours) was 7.47 ± 2.5 and the Plasma level ([4]; 1 hour) was 5.41 ± 2.4. For the same compound, the Plasma level ([4]; 2 hours, *2 one very high concentration in one animal (A84575 Complex)) was 0.87 ± 0.2, the MIC [5] was 1 µg/mL (≈ 0.69 µM) and the MIC ([6]; strain 8, A84575: 3 different lots) was 1 µg/mL (≈ 0.69 µM). For the same compound, the MIC ([6]; strain 52, A84575: 3 different lots) was 1 µg/mL (≈ 0.69 µM), the MIC ([6]; strain 59, A84575: 3 different lots) was 0.25 µg/mL (≈ 0.173 µM) and the MIC ([6]; strain 1428, A84575: 3 different lots) was 0.03 µg/mL (≈ 0.0207 µM). For the same compound, the MIC ([6]; strain 1451, A84575: 3 different lots) was 2 µg/mL (≈ 1.38 µM), the MIC ([6]; strain 1477, A84575: 3 different lots) was 2 µg/mL (≈ 1.38 µM) and the ED50 (Streptococcus aureus) was 0.83 mg/kg. For the same compound, the MIC (Peptococcus prevoti; strain 1281, read-out: MIC) was 2 µg/mL (≈ 1.38 µM), the MIC (Peptococcus prevoti; strain 1293) was 2 µg/mL (≈ 1.38 µM) and the MIC (Peptococcus prevoti; strain 1407) was 2 µg/mL (≈ 1.38 µM). It also gave an MIC (Eubacterium aerofaciens) of 8 µg/mL (≈ 5.52 µM), an MIC (Staphylococcus aureus; strain 3055) of 1 µg/mL (≈ 0.69 µM) and an MIC (Staphylococcus aureus; strain 3109) of 1 µg/mL (≈ 0.69 µM). For the same compound, the MIC (Staphylococcus aureus; strain 3110) was 0.5 µg/mL (≈ 0.345 µM), the MIC (Staphylococcus aureus; strain 3123) was 1 µg/mL (≈ 0.69 µM) and the MIC (Staphylococcus aureus; strain 3128) was 1 µg/mL (≈ 0.69 µM). For the same compound, the MIC (Staphylococcus aureus; strain 3131, methicillin-resistant) was 0.5 µg/mL (≈ 0.345 µM), the MIC (Staphylococcus aureus; strain 3136) was 1 µg/mL (≈ 0.69 µM) and the MIC (Staphylococcus aureus; strain 3484A, methicillin-resistant) was 1 µg/mL (≈ 0.69 µM). The MIC (Staphylococcus aureus; strain 25923) was 2 µg/mL (≈ 1.38 µM), the MIC (Staphylococcus aureus; strain #43, methicillin-resistant) was 0.5 µg/mL (≈ 0.345 µM) and the MIC (Staphylococcus aureus; strain BGB #10, methicillin-resistant) was 1 µg/mL (≈ 0.69 µM). For the same compound, the MIC (Staphylococcus aureus; strain CVT#6, methicillin-resistant) was 0.5 µg/mL (≈ 0.345 µM), the MIC (Staphylococcus aureus; strain DUTT, methicillin-resistant) was 0.5 µg/mL (≈ 0.345 µM) and the MIC (Staphylococcus aureus; strain H290) was 1 µg/mL (≈ 0.69 µM). For the same compound, the MIC (Staphylococcus aureus; strain H535) was 0.5 µg/mL (≈ 0.345 µM), the MIC (Staphylococcus aureus; strain ID-VI #1, methicillin-resistant) was 0.5 µg/mL (≈ 0.345 µM) and the MIC (Staphylococcus aureus; strain Seattle 973, methicillin-resistant) was 0.5 µg/mL (≈ 0.345 µM). The MIC (Staphylococcus aureus; strain V92) was 0.5 µg/mL (≈ 0.345 µM), the MIC (Peptococcus variabilis) was 0.125 µg/mL (≈ 0.0863 µM) and the MIC ([7]; strain 1524, A84575: 3 different lots) was 1 µg/mL (≈ 0.69 µM). For the same compound, the MIC ([7]; strain 1624, A84575: 3 different lots) was 0.25 µg/mL (≈ 0.173 µM), the MIC (S. mutans; strain SM-1122) was 1 µg/mL (≈ 0.69 µM) and the MIC (S. mutans; strain SM-1134) was 2 µg/mL (≈ 1.38 µM). For the same compound, the MIC [8] was 4 µg/mL (≈ 2.76 µM).
